Data as given in the NIST ThermoML archive (doi:10.1021/je3003578).
± gives the expanded uncertainty stated by the source.

Test: xn = mol fraction of the nth substance listed
Conditions: 101 kPa, Liquid

CCOCCCN [3-ethoxy-1-propanamine] + O
mass density [kg/m3]
Conditions	283.15 K	288.15 K	293.15 K	298.15 K	303.15 K
x1 = 0.000108	999.685 ± 0.3	999.073 ± 0.31	998.176 ± 0.31	997.018 ± 0.31	995.609 ± 0.31
x1 = 0.000319	999.612 ± 0.3	998.997 ± 0.31	998.098 ± 0.31	996.937 ± 0.31	995.522 ± 0.32
x1 = 0.000625	999.489 ± 0.3	–	997.974 ± 0.31	996.811 ± 0.31	995.392 ± 0.32
x1 = 0.000707	999.462 ± 0.3	–	–	–	–
x1 = 0.000942	999.378 ± 0.3	998.755 ± 0.31	997.845 ± 0.31	996.67 ± 0.31	995.256 ± 0.32
x1 = 0.001046	999.335 ± 0.3	–	–	–	–
x1 = 0.001284	999.244 ± 0.31	998.623 ± 0.31	997.706 ± 0.31	996.533 ± 0.31	995.106 ± 0.32
x1 = 0.001947	999.006 ± 0.31	998.367 ± 0.31	997.459 ± 0.31	996.269 ± 0.31	994.822 ± 0.32
x1 = 0.002912	998.665 ± 0.31	998.003 ± 0.31	997.058 ± 0.31	995.851 ± 0.31	994.409 ± 0.32
x1 = 0.00392	998.32 ± 0.31	997.639 ± 0.31	996.673 ± 0.31	995.45 ± 0.31	993.991 ± 0.32
x1 = 0.005098	997.943 ± 0.31	997.245 ± 0.31	996.25 ± 0.31	995.024 ± 0.32	993.55 ± 0.32
x1 = 0.007456	997.213 ± 0.31	996.459 ± 0.31	–	–	–
x1 = 0.00981	996.579 ± 0.31	995.782 ± 0.31	994.681 ± 0.32	993.348 ± 0.32	991.796 ± 0.32
x1 = 0.0148	995.454 ± 0.31	994.495 ± 0.32	993.269 ± 0.32	991.824 ± 0.32	990.144 ± 0.33
x1 = 0.01956	994.585 ± 0.31	993.456 ± 0.32	992.092 ± 0.32	990.53 ± 0.32	988.708 ± 0.33
x1 = 0.02832	993.306 ± 0.32	991.899 ± 0.32	990.264 ± 0.32	988.433 ± 0.33	986.387 ± 0.33
x1 = 0.03914	992.137 ± 0.32	990.361 ± 0.32	988.357 ± 0.33	986.207 ± 0.33	983.868 ± 0.34
x1 = 0.05082	991.126 ± 0.32	988.889 ± 0.33	986.504 ± 0.33	983.995 ± 0.34	981.31 ± 0.34
x1 = 0.06674	989.564 ± 0.33	986.858 ± 0.33	983.968 ± 0.34	980.975 ± 0.35	977.903 ± 0.35
x1 = 0.09536	985.793 ± 0.34	982.292 ± 0.34	978.874 ± 0.35	975.145 ± 0.36	971.645 ± 0.37
x1 = 0.1209	981.126 ± 0.35	977.267 ± 0.36	973.326 ± 0.37	969.369 ± 0.38	965.331 ± 0.39
x1 = 0.1452	976.001 ± 0.36	971.617 ± 0.37	967.737 ± 0.38	963.561 ± 0.39	959.341 ± 0.4
x1 = 0.1844	967.807 ± 0.38	962.845 ± 0.39	958.517 ± 0.41	954.192 ± 0.42	949.751 ± 0.43
x1 = 0.2121	960.275 ± 0.4	955.87 ± 0.41	951.456 ± 0.42	947.02 ± 0.43	942.563 ± 0.45
x1 = 0.2438	954.343 ± 0.42	948.987 ± 0.43	944.543 ± 0.44	940.074 ± 0.46	935.55 ± 0.47
x1 = 0.2923	944.589 ± 0.45	939.953 ± 0.46	935.456 ± 0.47	930.954 ± 0.48	926.38 ± 0.49
x1 = 0.361	932.627 ± 0.48	926.801 ± 0.5	922.252 ± 0.51	917.676 ± 0.53	913.059 ± 0.54
x1 = 0.4369	921.019 ± 0.53	916.153 ± 0.54	911.545 ± 0.56	906.929 ± 0.57	902.254 ± 0.58
x1 = 0.4937	911.932 ± 0.56	907.295 ± 0.58	902.62 ± 0.59	897.985 ± 0.61	893.262 ± 0.62
x1 = 0.5513	904.655 ± 0.6	900.039 ± 0.61	895.311 ± 0.62	890.64 ± 0.64	885.906 ± 0.65
x1 = 0.6214	896.914 ± 0.63	892.186 ± 0.65	887.472 ± 0.66	882.775 ± 0.68	877.992 ± 0.69
x1 = 0.6775	891.266 ± 0.66	886.402 ± 0.68	881.634 ± 0.69	876.891 ± 0.7	872.12 ± 0.72
x1 = 0.6943	889.59 ± 0.67	884.998 ± 0.68	880.062 ± 0.7	875.446 ± 0.71	870.586 ± 0.73
x1 = 0.7458	884.839 ± 0.69	880.089 ± 0.71	875.436 ± 0.72	870.539 ± 0.74	865.744 ± 0.75
x1 = 0.7733	882.976 ± 0.71	–	873.142 ± 0.73	868.397 ± 0.75	863.589 ± 0.76
x1 = 0.7947	880.664 ± 0.72	875.868 ± 0.73	871.067 ± 0.75	866.312 ± 0.76	861.557 ± 0.77
x1 = 0.8276	878.228 ± 0.73	873.43 ± 0.75	868.648 ± 0.76	863.952 ± 0.78	859.105 ± 0.79
x1 = 0.8488	876.201 ± 0.74	871.511 ± 0.76	–	862.009 ± 0.79	–
x1 = 0.8744	874.608 ± 0.76	–	864.922 ± 0.78	860.155 ± 0.8	855.327 ± 0.81
x1 = 0.8993	872.317 ± 0.77	867.858 ± 0.78	862.73 ± 0.8	858.054 ± 0.81	853.46 ± 0.82
x1 = 0.9189	871.084 ± 0.78	866.306 ± 0.79	861.498 ± 0.81	856.71 ± 0.82	851.896 ± 0.83
x1 = 0.9349	–	864.955 ± 0.8	–	–	–
x1 = 0.9411	869.403 ± 0.79	–	859.742 ± 0.82	855.013 ± 0.83	850.2 ± 0.84
x1 = 0.9436	–	864.338 ± 0.8	–	–	–
x1 = 0.9486	868.869 ± 0.79	–	859.29 ± 0.82	854.542 ± 0.83	849.691 ± 0.85
x1 = 0.9601	868.041 ± 0.8	863.267 ± 0.81	–	–	–
x1 = 0.9613	–	–	858.247 ± 0.83	853.53 ± 0.84	848.739 ± 0.85
x1 = 0.9746	–	–	857.315 ± 0.83	852.649 ± 0.85	847.719 ± 0.86
x1 = 0.9755	–	862.192 ± 0.82	–	–	–
x1 = 0.985	866.322 ± 0.81	861.525 ± 0.82	–	–	–
x1 = 0.9871	–	–	856.398 ± 0.84	851.83 ± 0.85	846.839 ± 0.87
x1 = 1	865.36 ± 0.82	860.63 ± 0.83	855.715 ± 0.84	851.018 ± 0.86	846.075 ± 0.87
